Drawing on ChEMBL document CHEMBL1201862, “PubChem BioAssay data set” (2004), this text covers AC50, IC50 and EC50 for seven compounds.

The structures appear in SMILES notation. Activity calls are given as the source filed them.

The term AC50 denotes the concentration giving half of the maximal activity seen. As a reminder, the IC50 is the concentration at which inhibition is half-maximal. Usually EC50 stands for the concentration giving half of the maximal effect.

Data set [1] addresses T1, Microphthalmia-associated transcription factor (Homo sapiens, UniProt O75030).
T1 sequence (O75030 whole entry): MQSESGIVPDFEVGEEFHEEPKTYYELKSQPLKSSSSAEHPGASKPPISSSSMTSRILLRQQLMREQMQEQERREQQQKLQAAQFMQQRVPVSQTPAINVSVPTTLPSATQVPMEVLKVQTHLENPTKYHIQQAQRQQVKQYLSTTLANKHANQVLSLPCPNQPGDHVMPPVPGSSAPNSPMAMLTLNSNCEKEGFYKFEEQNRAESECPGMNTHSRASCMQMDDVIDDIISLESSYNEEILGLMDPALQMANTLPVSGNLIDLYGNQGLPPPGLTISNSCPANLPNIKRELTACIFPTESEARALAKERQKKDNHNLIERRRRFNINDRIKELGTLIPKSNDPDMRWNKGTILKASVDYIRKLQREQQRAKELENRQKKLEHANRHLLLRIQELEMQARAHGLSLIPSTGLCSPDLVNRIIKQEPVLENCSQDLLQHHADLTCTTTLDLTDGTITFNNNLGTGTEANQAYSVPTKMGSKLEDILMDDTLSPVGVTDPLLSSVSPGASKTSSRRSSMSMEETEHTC
Put plainly: reducers of TRPM1 reporter luminescence, concentration series – cell-based, SK-MEL-5, cherry-picked, set 3, MITF inhibitor project, dose response (AID 493073).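 Note: SK-MEL-5 melanoma cells with luciferase driven by the MITF target TRPM1 promoter.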 The format is functional.

The target in data set [2] is Cytochrome P450 2C19 (Homo sapiens, UniProt P33261). In words: Cytochrome panel assay with activity outcomes. Panel member name: p450-cyp2c19 Compounds with AC50 equal or less than 10 uM are considered active. To be noted: read-out: AC50. In kind it is functional.
Sequence of Cytochrome P450 2C19 (P33261 whole entry): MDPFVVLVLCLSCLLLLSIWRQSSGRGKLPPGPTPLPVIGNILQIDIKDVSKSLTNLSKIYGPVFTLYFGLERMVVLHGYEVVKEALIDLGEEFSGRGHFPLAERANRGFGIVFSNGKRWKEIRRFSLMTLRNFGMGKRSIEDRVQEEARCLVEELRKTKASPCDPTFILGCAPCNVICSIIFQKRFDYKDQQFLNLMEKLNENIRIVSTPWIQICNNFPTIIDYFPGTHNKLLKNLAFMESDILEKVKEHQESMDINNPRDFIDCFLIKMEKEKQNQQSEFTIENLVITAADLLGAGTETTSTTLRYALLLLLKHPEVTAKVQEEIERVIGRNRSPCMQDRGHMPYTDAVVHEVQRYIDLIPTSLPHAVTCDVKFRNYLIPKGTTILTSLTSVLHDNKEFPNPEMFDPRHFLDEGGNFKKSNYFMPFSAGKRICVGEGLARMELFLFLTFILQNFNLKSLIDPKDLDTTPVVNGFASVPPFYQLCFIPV
In data set [3] the target is Cytochrome P450 2D6 (Homo sapiens, UniProt P10635).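 Note: CYP2D6 member of a cytochrome P450 panel assay.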
Sequence of Cytochrome P450 2D6 (P10635 whole entry): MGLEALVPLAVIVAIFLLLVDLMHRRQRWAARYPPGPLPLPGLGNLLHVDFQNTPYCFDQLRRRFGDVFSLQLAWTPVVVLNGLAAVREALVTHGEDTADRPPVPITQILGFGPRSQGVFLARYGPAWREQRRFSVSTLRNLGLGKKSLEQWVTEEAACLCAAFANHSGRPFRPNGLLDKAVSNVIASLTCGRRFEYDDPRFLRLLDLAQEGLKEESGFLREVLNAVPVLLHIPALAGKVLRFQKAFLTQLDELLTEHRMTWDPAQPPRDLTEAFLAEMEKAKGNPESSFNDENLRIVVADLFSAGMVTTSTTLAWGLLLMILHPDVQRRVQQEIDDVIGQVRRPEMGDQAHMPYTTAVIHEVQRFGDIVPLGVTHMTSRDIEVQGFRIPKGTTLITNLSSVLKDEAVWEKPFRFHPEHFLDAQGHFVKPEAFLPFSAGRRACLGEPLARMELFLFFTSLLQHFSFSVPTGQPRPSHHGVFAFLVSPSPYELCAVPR
The target in data set [4] is T2, Leucine aminopeptidase (Plasmodium falciparum 3D7, UniProt Q8IL11).
T2 sequence (Q8IL11 whole entry): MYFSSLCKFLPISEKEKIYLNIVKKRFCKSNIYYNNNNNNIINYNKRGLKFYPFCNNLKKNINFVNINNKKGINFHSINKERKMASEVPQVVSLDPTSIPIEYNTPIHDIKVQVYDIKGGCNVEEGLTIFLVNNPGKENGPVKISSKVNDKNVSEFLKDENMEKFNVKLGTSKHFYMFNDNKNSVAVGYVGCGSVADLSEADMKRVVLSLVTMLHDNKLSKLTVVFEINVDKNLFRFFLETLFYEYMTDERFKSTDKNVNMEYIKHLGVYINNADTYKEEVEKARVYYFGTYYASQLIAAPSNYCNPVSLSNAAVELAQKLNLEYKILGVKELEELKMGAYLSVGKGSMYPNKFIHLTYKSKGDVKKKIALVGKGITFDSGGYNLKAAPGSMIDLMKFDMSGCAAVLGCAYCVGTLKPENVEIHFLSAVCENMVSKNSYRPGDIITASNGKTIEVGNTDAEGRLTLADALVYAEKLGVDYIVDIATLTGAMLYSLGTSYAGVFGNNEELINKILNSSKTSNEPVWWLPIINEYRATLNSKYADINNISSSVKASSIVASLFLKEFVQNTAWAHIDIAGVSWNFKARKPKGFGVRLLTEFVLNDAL
Put plainly: P. falciparum M17LAP inhibitors, primary screen, biochemical, fluorogenic H-Leu-NHMec substrate, 1536-well (AID 1619). In kind it is functional.

Data set [5] deals with T3, Aminopeptidase N (Plasmodium falciparum FcB1/Columbia, UniProt O96935).
T3 sequence (O96935 whole entry): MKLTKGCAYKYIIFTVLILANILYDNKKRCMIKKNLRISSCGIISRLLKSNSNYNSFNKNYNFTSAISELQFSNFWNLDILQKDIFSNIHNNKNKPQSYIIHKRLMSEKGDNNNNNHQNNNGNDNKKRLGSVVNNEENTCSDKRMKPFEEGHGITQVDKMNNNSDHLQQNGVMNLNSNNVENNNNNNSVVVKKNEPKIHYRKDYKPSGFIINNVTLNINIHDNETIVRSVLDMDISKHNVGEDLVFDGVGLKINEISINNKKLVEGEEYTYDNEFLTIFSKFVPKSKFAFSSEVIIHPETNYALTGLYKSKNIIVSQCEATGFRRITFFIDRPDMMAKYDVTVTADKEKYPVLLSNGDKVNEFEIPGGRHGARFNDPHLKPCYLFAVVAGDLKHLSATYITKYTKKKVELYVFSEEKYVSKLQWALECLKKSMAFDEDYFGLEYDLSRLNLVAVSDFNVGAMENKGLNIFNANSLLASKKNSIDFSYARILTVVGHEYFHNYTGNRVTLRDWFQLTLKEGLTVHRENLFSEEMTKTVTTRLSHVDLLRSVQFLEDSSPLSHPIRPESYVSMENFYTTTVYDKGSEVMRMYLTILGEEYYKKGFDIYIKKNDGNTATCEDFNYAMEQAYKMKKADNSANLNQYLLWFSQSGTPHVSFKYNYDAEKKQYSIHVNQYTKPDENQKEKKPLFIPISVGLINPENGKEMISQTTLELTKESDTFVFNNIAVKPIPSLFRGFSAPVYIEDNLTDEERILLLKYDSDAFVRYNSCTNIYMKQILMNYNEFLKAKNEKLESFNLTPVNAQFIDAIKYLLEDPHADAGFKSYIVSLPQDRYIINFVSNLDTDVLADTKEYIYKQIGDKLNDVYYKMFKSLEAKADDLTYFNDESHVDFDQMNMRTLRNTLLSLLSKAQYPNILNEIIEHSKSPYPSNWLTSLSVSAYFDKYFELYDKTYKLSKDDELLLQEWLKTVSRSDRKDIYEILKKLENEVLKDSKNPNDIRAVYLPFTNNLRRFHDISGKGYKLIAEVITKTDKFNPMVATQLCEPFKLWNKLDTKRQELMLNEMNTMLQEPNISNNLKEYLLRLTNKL
In words: malaria alanyl aminopeptidase activity blockers – biochemical, fluorogenic H-Leu-NHMec substrate, 1536-well (AID 1445). Set-up: species or system Plasmodium falciparum 3D7, 3D7.

The target of data set [6] is T4, RNA-binding protein pos-1 (Caenorhabditis elegans, UniProt G5EF15).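 Note: purified POS-1 fused to maltose binding protein made in E. coli; potency of compounds blocking POS-1 binding to fluorescent RNA.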
T4 sequence (G5EF15 whole entry): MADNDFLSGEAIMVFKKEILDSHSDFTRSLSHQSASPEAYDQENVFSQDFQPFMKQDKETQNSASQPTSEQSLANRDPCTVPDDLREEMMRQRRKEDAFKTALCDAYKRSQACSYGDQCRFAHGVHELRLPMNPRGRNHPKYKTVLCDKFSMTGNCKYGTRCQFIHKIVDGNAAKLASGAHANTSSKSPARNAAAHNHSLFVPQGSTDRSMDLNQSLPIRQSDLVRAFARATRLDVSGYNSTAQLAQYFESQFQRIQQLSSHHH
Put plainly: disruptors of C. elegans POS-1 RNA interaction – biochemical, fluorescence polarization, dose response (AID 1964). (Polarisation of emitted light reports the rotation of a fluorescent probe.)

For data set [7], the system named is Streptococcus sp. 'group A'. In words: Streptococcus pyogenes SK(-)GAS viability under kanamycin – luminescence, BacTiterGlo, confirmation, counter-screen for streptokinase expression inhibitor project, dose response (AID 1900). In kind it is functional, organism-based.
Data set [8] deals with T5, SUMO-activating enzyme (Homo sapiens, UniProt Q9UBT2). In words: blockers of UBC9-mediated SUMO conjugation – biochemical, AlphaScreen, SUMOylation inhibitor project, confirmation (AID 2018). In kind it is functional. Background: In Alpha technology, singlet oxygen from a donor bead excites a nearby acceptor bead.
T5 sequence (Q9UBE0 whole entry): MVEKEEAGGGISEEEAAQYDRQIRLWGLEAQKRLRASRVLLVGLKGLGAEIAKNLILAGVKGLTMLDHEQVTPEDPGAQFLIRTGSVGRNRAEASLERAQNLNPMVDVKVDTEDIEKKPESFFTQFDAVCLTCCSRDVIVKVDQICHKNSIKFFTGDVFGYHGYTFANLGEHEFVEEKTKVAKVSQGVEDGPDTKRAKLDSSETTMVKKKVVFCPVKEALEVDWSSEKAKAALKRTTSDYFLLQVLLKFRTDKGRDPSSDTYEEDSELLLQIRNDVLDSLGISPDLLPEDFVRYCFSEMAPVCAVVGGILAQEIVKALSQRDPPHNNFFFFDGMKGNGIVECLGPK
T5 sequence (Q9UBT2 whole entry): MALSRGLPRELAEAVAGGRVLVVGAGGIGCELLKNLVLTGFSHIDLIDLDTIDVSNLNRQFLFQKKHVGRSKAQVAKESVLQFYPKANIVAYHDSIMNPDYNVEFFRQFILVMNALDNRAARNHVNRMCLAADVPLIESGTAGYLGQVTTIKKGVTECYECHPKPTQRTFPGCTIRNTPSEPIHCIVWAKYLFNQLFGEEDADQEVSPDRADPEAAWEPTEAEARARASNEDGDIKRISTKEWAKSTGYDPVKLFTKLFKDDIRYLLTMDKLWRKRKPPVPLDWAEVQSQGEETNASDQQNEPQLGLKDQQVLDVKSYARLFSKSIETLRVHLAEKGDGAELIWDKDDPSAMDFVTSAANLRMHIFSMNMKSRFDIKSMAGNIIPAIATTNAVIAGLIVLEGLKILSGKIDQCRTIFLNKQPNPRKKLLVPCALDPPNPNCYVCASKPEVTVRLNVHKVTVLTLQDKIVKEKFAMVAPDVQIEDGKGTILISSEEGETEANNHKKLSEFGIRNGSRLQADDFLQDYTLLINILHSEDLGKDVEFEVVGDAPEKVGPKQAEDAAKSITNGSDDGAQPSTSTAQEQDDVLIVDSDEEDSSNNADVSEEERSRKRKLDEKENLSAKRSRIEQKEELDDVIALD
Data set [9] addresses T6, Zinc finger protein mex-5 (Caenorhabditis elegans, UniProt Q9XUB2).
T6 sequence (Q9XUB2 whole entry): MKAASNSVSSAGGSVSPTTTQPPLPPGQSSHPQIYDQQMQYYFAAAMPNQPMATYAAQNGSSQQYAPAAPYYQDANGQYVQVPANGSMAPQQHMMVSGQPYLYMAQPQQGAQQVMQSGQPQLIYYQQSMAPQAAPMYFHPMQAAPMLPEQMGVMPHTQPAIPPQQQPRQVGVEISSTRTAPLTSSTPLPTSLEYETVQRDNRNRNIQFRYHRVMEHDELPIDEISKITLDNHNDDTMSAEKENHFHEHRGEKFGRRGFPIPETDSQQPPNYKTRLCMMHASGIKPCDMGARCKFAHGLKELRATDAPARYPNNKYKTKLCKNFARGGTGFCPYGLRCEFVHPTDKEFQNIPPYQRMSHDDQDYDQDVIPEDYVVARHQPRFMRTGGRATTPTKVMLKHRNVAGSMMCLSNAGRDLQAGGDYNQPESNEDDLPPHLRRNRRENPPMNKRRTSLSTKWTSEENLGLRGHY
In words: potency of MEX-5 RNA-binding blockers – biochemical, C. elegans, fluorescence polarization, dose response (AID 1960).

Data set [10] has as its target T5, SUMO-activating enzyme. In words: blockers of SAE1/SAE2–UBC9 SUMO transfer – biochemical, HTRF, uHTS, primary screen (AID 2006). In kind it is protein-complex assay. In general terms: Time-resolved FRET reads energy transfer from a long-lived donor to a nearby acceptor.
Data set [11] has as its system Streptococcus. Put plainly: GAS UMAA2166 growth inhibition – luminescence, BacTiterGlo, counter-screen for streptokinase expression inhibitor project, dose response (AID 1915).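 Note: potency for reduction of bacterial viability or growth.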 The format is functional, organism-based.
Data set [12] concerns the target Nonstructural protein 1 (Influenza A virus, UniProt Q194T2). The format is functional, Influenza A virus (A/California/07/2009(H1N1)).
Data set [13] has as its target Albumin (Bos taurus, UniProt P02769). In words: Counterscreen for inhibitors of T-cell receptor (TCR)-CD3 interaction: Fluorescence-based biochemical high throughput dose response assay to identify inhibitors of T-cell receptor (TCR)-CD3 interaction using a TAMRA-labeled BSA probe. In kind it is functional.
The target of data set [14] is T7, Bcl-2-related protein A1 (Mus musculus, UniProt Q07440).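 Note: confirmatory dose–response counterscreen on Bfl-1, used to check hits from a UBC13 polyubiquitin inhibitor campaign.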
T7 sequence (Q07440 whole entry): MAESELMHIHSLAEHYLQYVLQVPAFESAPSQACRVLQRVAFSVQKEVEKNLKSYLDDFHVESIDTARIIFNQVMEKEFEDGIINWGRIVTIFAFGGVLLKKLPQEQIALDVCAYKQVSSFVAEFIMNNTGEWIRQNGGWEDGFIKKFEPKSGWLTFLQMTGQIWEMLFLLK
In kind it is functional.

Data set [15] addresses T8, Ubiquitin-conjugating enzyme E2 N (Homo sapiens, UniProt P61088).
T8 sequence (P61088 whole entry): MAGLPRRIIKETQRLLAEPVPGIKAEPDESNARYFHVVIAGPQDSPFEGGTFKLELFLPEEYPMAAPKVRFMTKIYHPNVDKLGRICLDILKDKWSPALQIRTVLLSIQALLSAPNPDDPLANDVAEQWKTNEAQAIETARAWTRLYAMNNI
In kind it is functional.

The target in data set [16] is T8, Ubiquitin-conjugating enzyme E2 N. In kind it is functional. This is another data set of the same source.
The target of data set [17] is T9, Cytochrome P450 1A2 (Homo sapiens, UniProt P05177).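 Note: PubChem cytochrome P450 panel assay, CYP1A2 panel member.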
T9 sequence (P05177 whole entry): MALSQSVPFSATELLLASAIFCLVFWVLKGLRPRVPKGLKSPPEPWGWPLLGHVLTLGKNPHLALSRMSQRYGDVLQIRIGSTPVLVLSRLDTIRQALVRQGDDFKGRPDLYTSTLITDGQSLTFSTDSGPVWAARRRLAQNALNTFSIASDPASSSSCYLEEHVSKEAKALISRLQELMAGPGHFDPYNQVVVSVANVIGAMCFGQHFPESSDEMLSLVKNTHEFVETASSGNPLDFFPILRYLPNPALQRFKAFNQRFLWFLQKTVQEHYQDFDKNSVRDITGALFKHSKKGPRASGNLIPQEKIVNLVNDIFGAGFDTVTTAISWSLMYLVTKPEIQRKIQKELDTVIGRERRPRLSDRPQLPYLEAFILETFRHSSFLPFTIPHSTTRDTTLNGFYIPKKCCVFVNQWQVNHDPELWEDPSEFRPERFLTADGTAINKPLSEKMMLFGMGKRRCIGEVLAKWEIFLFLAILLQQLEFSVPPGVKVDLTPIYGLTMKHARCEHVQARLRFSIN

Sequence of Albumin (P02769 whole entry): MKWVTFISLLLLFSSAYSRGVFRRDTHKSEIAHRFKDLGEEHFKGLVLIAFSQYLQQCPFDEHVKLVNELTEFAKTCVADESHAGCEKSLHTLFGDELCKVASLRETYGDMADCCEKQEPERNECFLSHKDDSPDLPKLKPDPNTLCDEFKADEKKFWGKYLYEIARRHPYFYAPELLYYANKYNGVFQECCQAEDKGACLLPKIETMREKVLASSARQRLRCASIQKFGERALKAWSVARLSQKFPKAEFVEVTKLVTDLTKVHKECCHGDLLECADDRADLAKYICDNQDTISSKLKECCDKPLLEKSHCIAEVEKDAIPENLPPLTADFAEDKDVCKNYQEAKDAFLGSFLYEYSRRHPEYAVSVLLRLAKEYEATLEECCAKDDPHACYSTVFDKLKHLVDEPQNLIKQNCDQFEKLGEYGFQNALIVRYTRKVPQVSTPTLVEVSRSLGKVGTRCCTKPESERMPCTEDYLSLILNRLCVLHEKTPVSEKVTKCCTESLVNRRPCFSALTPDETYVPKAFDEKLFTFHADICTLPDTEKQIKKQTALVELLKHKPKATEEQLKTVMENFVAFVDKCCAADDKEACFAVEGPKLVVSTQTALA
Sequence of Nonstructural protein 1 (Q194T2 whole entry): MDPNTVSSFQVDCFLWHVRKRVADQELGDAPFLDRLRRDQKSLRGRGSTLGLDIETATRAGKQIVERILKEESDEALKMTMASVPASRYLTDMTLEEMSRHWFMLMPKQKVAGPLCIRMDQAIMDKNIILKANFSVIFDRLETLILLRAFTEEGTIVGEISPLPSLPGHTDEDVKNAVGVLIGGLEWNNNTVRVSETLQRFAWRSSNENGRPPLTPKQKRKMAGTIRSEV

Turning to `[2H]C(CCOS(N)(=O)=O)c1ccc(C(C)(C)C)cc1` (stereo not drawn), in [1], the AC50 is 0.487 µM (active).
As to `CCOc1ccc(N(CC(=O)NCc2ccc(OC)cc2)S(=O)(=O)c2c(C)noc2C)cc1`, the AC50 is 0.282 µM (inconclusive) in data set [2] and “inconclusive” in data set [3].
On to `O=C1NC(=O)N(Cc2ccco2)C(=O)/C1=C/NNC(=O)c1ccccc1O`, for which the IC50 in [4] was 50.3 µM (active); in [5], 26.2 µM (active); in data set [8], 2.29 µM (active); in data set [10], 15 µM (active); in data set [12], 42.3 µM (active); in data set [13], > 94 µM (inactive). Further, the EC50 in data set [6] is 15.5 µM (active); in data set [7], 3 µM (active); in data set [9], 16.9 µM (active); in data set [11] it was 6.03 µM (active).
For `C=CCNC(=S)Nc1sc2c(c1C(=O)OCC)CCN(C(=O)OCC)C2`, the values for the IC50 in [14], in [15] and in data set [16] were > 20 µM (inactive), 12.4 µM (active) and > 20 µM (inactive), respectively.
`O=C(CSc1ccc(Cl)cc1)NC1CCCC1`: the half-maximal activity concentration (AC50) in [1] is 14.2 µM (active).
As to `C#CCOCCOCCOCCNc1nc(N2CCN(C(=O)[C@H](CCCCN)n3cc([C@@H](N)[C@H](C)CC)nn3)CC2)nc(N2CCN(C(=O)[C@H](CCCCN)n3cc([C@@H](N)CC(N)=O)nn3)CC2)n1`, the IC50 was > 20 µM (inactive) in [14], 10.3 µM (active) in [15] and 16.6 µM (active) in [16].
In the case of `CC1Cc2ccccc2N1C(=O)CSCC(=O)O` (stereo not drawn), the AC50 was 11.2 µM (inconclusive) in [2], 20 µM (inconclusive) in data set [17] and “inconclusive” in [3].
